Data from ChEMBL document CHEMBL2046308, “Thiol-reactive compounds from garlic inhibit the epithelial sodium channel (ENaC)” (Bioorg Med Chem, 2012).
Activity calls are given as the source filed them. The calls are words filed in the database; no cut-off is given here.

The molecules below were run against T1, Amiloride-sensitive sodium channel, ENaC (Homo sapiens) (UniProt P37088+P51168+P51170) (assay: Inhibition of human ENaC alpha-beta-gamma expressed in Xenopus laevis oocytes assessed as effect on transmembrane currents at 1 mM by two-electrode voltage-clamp technique). Details: Oocyte.
Assay type: cell-based

| inhibition | SMILES |
| --- | --- |
| inactive | C=CCSC[C@H](N)C(=O)O |
| inactive | C=CC[S@+]([O-])C[C@H](N)C(=O)O |
| inactive | C=CCSSSCC=C |
| inactive | C=CCSCC=C |

| SMILES | inhibition |
| --- | --- |
| C=CCSSCC=C | inactive |

What follows are molecules tested against T1, Amiloride-sensitive sodium channel, ENaC (Homo sapiens) (assay: Inhibition of human ENaC alpha-beta-gamma expressed in Xenopus laevis oocytes assessed as effect on transmembrane currents at 100 uM by two-electrode voltage-clamp technique). Details: Oocyte.
Assay type: cell-based

| inhibition [%] | SMILES |
| --- | --- |
| 77 | C=CCS[S+]([O-])CC=C (stereo unspecified) |
